PubChem BioAssay AID248 (DTP/NCI, 2004)
“And” between values parts separate entries of the source, which are not always exact repeats. Identical values can stand only once. Toxic doses and inconclusive results are not listed. No stated cut-off is given here; in the data, active means T/C of 150% or more; inactive means T/C below 125%.

Test system: L1210 leukemia ip in BDF1 mice, survival T/C
Test: NCI In Vivo Anticancer Drug Screen. Data for tumor model L1210 Leukemia (intraperitoneal) in B6D2F1 (BDF1) mice
Conditions: endpoint: mean survival time, higher = longer survival
In short: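 Value reflects the ratio of survival in compound-treated mice to survival in vehicle-treated controls, with both groups carrying the same transplanted tumor.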

[1] = dose: 50.0 mg/kg/injection, schedule: Q04DX003 (ip), vehicle: Klucel (hydroxypropylcellulose) (HPC)
[2] = dose: 100.0 mg/kg/injection, schedule: Q01DX009 (ip), vehicle: saline
[3] = dose: 100.0 mg/kg/injection, schedule: Q04DX003 (ip), vehicle: Klucel (hydroxypropylcellulose) (HPC)
[4] = dose: 100.0 mg/kg/injection, schedule: Q04DX002 (ip), vehicle: saline with Tween-80
[5] = dose: 200.0 mg/kg/injection, schedule: Q04DX002 (ip), vehicle: saline with Tween-80
[6] = dose: 400.0 mg/kg/injection, schedule: Q04DX002 (ip), vehicle: saline with Tween-80
[7] = dose: 100.0 mg/kg/injection, schedule: Q01DX001 (ip), vehicle: saline
[8] = dose: 200.0 mg/kg/injection, schedule: Q01DX001 (ip), vehicle: saline
[9] = dose: 400.0 mg/kg/injection, schedule: Q01DX001 (ip), vehicle: saline
[10] = dose: 200.0 mg/kg/injection, schedule: Q04DX003 (ip), vehicle: Klucel (hydroxypropylcellulose) (HPC)
[11] = dose: 400.0 mg/kg/injection, schedule: Q04DX003 (ip), vehicle: Klucel (hydroxypropylcellulose) (HPC)
[12] = dose: 100.0 mg/kg/injection, schedule: Q01DX009 (ip), vehicle: Klucel (hydroxypropylcellulose) (HPC)
[13] = dose: 200.0 mg/kg/injection, schedule: Q01DX009 (ip), vehicle: Klucel (hydroxypropylcellulose) (HPC)
[14] = dose: 400.0 mg/kg/injection, schedule: Q01DX009 (ip), vehicle: Klucel (hydroxypropylcellulose) (HPC)
[15] = dose: 100.0 mg/kg/injection, schedule: Q04DX002 (ip), vehicle: Klucel (hydroxypropylcellulose) (HPC)

Measured: T/C

CCOC(=O)C(=O)C(C#N)C(=O)OCC (stereo not given)
inactive: dose: 12.5 mg/kg/injection, schedule: Q04DX003 (ip), vehicle: Klucel (hydroxypropylcellulose) (HPC) 100 % of control | dose: 25.0 mg/kg/injection, schedule: Q01DX009 (ip), vehicle: saline 98 % of control | dose: 25.0 mg/kg/injection, schedule: Q04DX003 (ip), vehicle: Klucel (hydroxypropylcellulose) (HPC) 100 % of control | dose: 50.0 mg/kg/injection, schedule: Q01DX009 (ip), vehicle: saline 98 % of control | [1] 91 % of control | [2] 95 % of control | [3] 97 % of control

C/C=C\c1ccc(OC(=O)Nc2ccc(Cl)cc2)c(OC)c1
inactive: [4] 100 % of control | [5] 100 % of control | [6] 96 % of control

CCOC(=O)C/C(=N\Nc1ccc([N+](=O)[O-])cc1[N+](=O)[O-])c1ccccc1
inactive: dose: 100.0 mg/kg/injection, schedule: Q04DX003 (ip), vehicle: saline sonified 96 % of control | dose: 200.0 mg/kg/injection, schedule: Q04DX003 (ip), vehicle: saline sonified 96 % of control | dose: 400.0 mg/kg/injection, schedule: Q04DX003 (ip), vehicle: saline sonified 91 % of control

O=C(OC1(c2ccccc2)CC2CC1c1ccccc12)c1ccc([N+](=O)[O-])cc1 (stereo not given)
inactive: dose: 50.0 mg/kg/injection, schedule: Q01DX001 (ip), vehicle: carboxymethylcellulose (CMC) 88 % of control | dose: 100.0 mg/kg/injection, schedule: Q01DX001 (ip), vehicle: carboxymethylcellulose (CMC) 95 % of control | dose: 200.0 mg/kg/injection, schedule: Q01DX001 (ip), vehicle: carboxymethylcellulose (CMC) 95 % of control

CC12C=CC3(CCC4C(C)(C)C(OC5OC(CO)C(O)C(O)C5O)C(=O)CC4(C)C3CC1=O)C2 (stereo not given)
inactive: [7] 100 % of control | [8] 109 % of control | [9] 97 % of control

CCC(=O)N(c1ccccc1)C1/C(=C\c2ccccc2)N2CCC1CC2 (stereo not given)
inactive: [3] 97 % of control | [10] 95 % of control | [11] 95 % of control

O=Cc1c[nH]c2ccc(Br)cc12
inactive: dose: 100.0 mg/kg/injection, schedule: Q04DX003 (ip), vehicle: saline 95 % of control | dose: 200.0 mg/kg/injection, schedule: Q04DX003 (ip), vehicle: saline 105 % of control | dose: 400.0 mg/kg/injection, schedule: Q04DX003 (ip), vehicle: saline 95 % of control

CC(=O)N1C(=O)c2ccccc2C1=O
inactive: dose: 100.0 mg/kg/injection, schedule: Q01DX001 (ip), vehicle: Klucel (hydroxypropylcellulose) (HPC) 95 % of control | [12] 93 % of control | dose: 200.0 mg/kg/injection, schedule: Q01DX001 (ip), vehicle: Klucel (hydroxypropylcellulose) (HPC) 92 % of control | [13] 93 % of control | dose: 400.0 mg/kg/injection, schedule: Q01DX001 (ip), vehicle: Klucel (hydroxypropylcellulose) (HPC) 92 % of control | [14] 90 % of control

Cc1cn[nH]c1-c1ccccc1
inactive: [1] 107 % of control | [3] 104 % of control | [10] 94 % of control

CC(C)CCC(C)(C)C1=CC(=O)C=CC1=O
inactive: [4] 93 % of control | [5] 90 % of control | [6] 93 % of control

Cc1ccc(S(=O)(=O)N(C)CCC#N)cc1
inactive: [12] 97 % of control | [3] 100 % of control | [13] 96 % of control | [10] 98 % of control | [14] 96 % of control | [11] 96 % of control

CC(C)(C)C1CCC([N+](=O)[O-])CC1 (stereo not given)
inactive: dose: 19.0 mg/kg/injection, schedule: Q01DX001 (ip), vehicle: other 103 % of control | dose: 19.0 mg/kg/injection, schedule: Q01DX009 (ip), vehicle: other 102 % of control | dose: 38.0 mg/kg/injection, schedule: Q01DX001 (ip), vehicle: other 97 % of control | dose: 38.0 mg/kg/injection, schedule: Q01DX009 (ip), vehicle: other 98 % of control | dose: 75.0 mg/kg/injection, schedule: Q01DX001 (ip), vehicle: other 95 % of control and 97 % of control

CC1SC(c2ccccc2)N(c2ccccc2)C1=O (stereo not given)
inactive: [12] 98 % of control | [3] 100 % of control | [13] 114 % of control | [10] 98 % of control | [14] 106 % of control | [11] 100 % of control

CCCCCCCCC(=O)NCc1ccco1
inactive: [12] 92 % of control | [13] 91 % of control | [14] 94 % of control

CC(C)(CS(C)(=O)=O)C(=O)O
inactive: [7] 98 % of control | [2] 89 % of control | [8] 98 % of control | [9] 101 % of control | dose: 400.0 mg/kg/injection, schedule: Q01DX009 (ip), vehicle: saline 91 % of control

CC/C(I)=C(/CC)S(=O)(=O)c1ccc(C)cc1
inactive: [7] 101 % of control | dose: 100.0 mg/kg/injection, schedule: Q01DX009 (ip), vehicle: saline with Tween-80 98 % of control | [8] 103 % of control | dose: 200.0 mg/kg/injection, schedule: Q01DX009 (ip), vehicle: saline with Tween-80 102 % of control | [9] 111 % of control | dose: 400.0 mg/kg/injection, schedule: Q01DX009 (ip), vehicle: saline with Tween-80 98 % of control

O=C(NCc1ccccc1)c1ccc(C(=O)NCc2ccccc2)cc1
inactive: dose: 100.0 mg/kg/injection, schedule: Q01DX001 (ip), vehicle: other 90 % of control | dose: 200.0 mg/kg/injection, schedule: Q01DX001 (ip), vehicle: other 88 % of control | dose: 400.0 mg/kg/injection, schedule: Q01DX001 (ip), vehicle: other 96 % of control

CC(=O)N=c1ccccn1O
inactive: dose: 100.0 mg/kg/injection, schedule: Q04DX002 (ip), vehicle: saline 96 % of control | dose: 200.0 mg/kg/injection, schedule: Q04DX002 (ip), vehicle: saline 105 % of control

NC(=S)N/N=C/c1ccc(Cl)s1
inactive: dose: 25.0 mg/kg/injection, schedule: Q04DX002 (ip), vehicle: Klucel (hydroxypropylcellulose) (HPC) 95 % of control | dose: 50.0 mg/kg/injection, schedule: Q04DX002 (ip), vehicle: Klucel (hydroxypropylcellulose) (HPC) 95 % of control | [15] 98 % of control and 100 % of control

NC(=O)N/N=C/c1ccc([N+](=O)[O-])cc1
inactive: [15] 96 % of control | dose: 200.0 mg/kg/injection, schedule: Q04DX002 (ip), vehicle: Klucel (hydroxypropylcellulose) (HPC) 110 % of control | dose: 400.0 mg/kg/injection, schedule: Q04DX002 (ip), vehicle: Klucel (hydroxypropylcellulose) (HPC) 107 % of control

N/C(=N\O)c1ccc2ccc3cccnc3c2n1
inactive: dose: 100.0 mg/kg/injection, schedule: Q04DX003 (ip), vehicle: saline with Tween-80 102 % of control | dose: 200.0 mg/kg/injection, schedule: Q04DX003 (ip), vehicle: saline with Tween-80 87 % of control

O=S1(=O)CC(O)C1
inactive: dose: 50.0 mg/kg/injection, schedule: Q01DX001 (ip), vehicle: saline 91 % of control | [7] 100 % of control | [8] 94 % of control | [9] 105 % of control
